# Columns and labels:
# [1] = The drug is tested on Subdoligranulum variabile strain: DSM15176 for biotransformation. The drug concentrations were measured before and after a 12-h incubation by liquid-chromatography-coupled mass spectrometry (LC–MS); details: 2 µM
# [2] = The drug is tested on Anaerococcus hydrogenalis strain: DSM7454 for biotransformation. The drug concentrations were measured before and after a 12-h incubation by liquid-chromatography-coupled mass spectrometry (LC–MS); details: 2 µM
# [3] = The drug is tested on Collinsella intestinalis strain: DSM13280 for biotransformation. The drug concentrations were measured before and after a 12-h incubation by liquid-chromatography-coupled mass spectrometry (LC–MS); details: 2 µM
# [4] = segatella copri, 12 h, 2 µM
# Description: The drug is tested on Prevotella copri strain: DSM18205 for biotransformation. The drug concentrations were measured before and after a 12-h incubation by liquid-chromatography-coupled mass spectrometry (LC–MS)
# [5] = The drug is tested on Ruminococcus gnavus strain: ATCC29149 for biotransformation. The drug concentrations were measured before and after a 12-h incubation by liquid-chromatography-coupled mass spectrometry (LC–MS); details: mediterraneibacter gnavus, 2 µM
# [6] = The drug is tested on Bacteroides coprophilus strain: DSM18228 for biotransformation. The drug concentrations were measured before and after a 12-h incubation by liquid-chromatography-coupled mass spectrometry (LC–MS); details: 2 µM
# [7] = bacteroides stercoris, 12 h, 2 µM
# Description: The drug is tested on Bacteroides stercoris strain: ATCC43183 for biotransformation. The drug concentrations were measured before and after a 12-h incubation by liquid-chromatography-coupled mass spectrometry (LC–MS)
# [8] = The drug is tested on Coprococcus comes strain: ATCC27758 for biotransformation. The drug concentrations were measured before and after a 12-h incubation by liquid-chromatography-coupled mass spectrometry (LC–MS); type: ADME; parameters: dose 2 uM, timepoint 0 vs 12 hours; details: 2 µM
# [9] = The drug is tested on Blautia luti strain: DSM14534 for biotransformation. The drug concentrations were measured before and after a 12-h incubation by liquid-chromatography-coupled mass spectrometry (LC–MS); type: ADME; parameters: dose 2 uM, timepoint 0 vs 12 hours; details: 2 µM
# [10] = The drug is tested on Dorea formicigenerans strain: ATCC27755 for biotransformation. The drug concentrations were measured before and after a 12-h incubation by liquid-chromatography-coupled mass spectrometry (LC–MS); details: 2 µM
# [11] = roseburia intestinalis, 12 h, 2 µM
# Description: The drug is tested on Roseburia intestinalis strain: L1-82 for biotransformation. The drug concentrations were measured before and after a 12-h incubation by liquid-chromatography-coupled mass spectrometry (LC–MS)
# [12] = bacteroides thetaiotaomicron, 12 h, 2 µM
# Description: The drug is tested on Bacteroides thetaiotaomicron strain: 7330 for biotransformation. The drug concentrations were measured before and after a 12-h incubation by liquid-chromatography-coupled mass spectrometry (LC–MS)
# [13] = limosilactobacillus reuteri cf48-3a, 12 h, 2 µM
# Description: The drug is tested on Lactobacillus reuteri CF48-3A strain: BEI HM-102 for biotransformation. The drug concentrations were measured before and after a 12-h incubation by liquid-chromatography-coupled mass spectrometry (LC–MS)
# [14] = bacteroides intestinalis, 12 h, 2 µM
# Description: The drug is tested on Bacteroides intestinalis strain: DSM17393 for biotransformation. The drug concentrations were measured before and after a 12-h incubation by liquid-chromatography-coupled mass spectrometry (LC–MS)
# [15] = The drug is tested on Clostridium sporogenes strain: ATCC15579 for biotransformation. The drug concentrations were measured before and after a 12-h incubation by liquid-chromatography-coupled mass spectrometry (LC–MS); details: 2 µM
# [16] = The drug is tested on Bacteroides finegoldii strain: DSM17565 for biotransformation. The drug concentrations were measured before and after a 12-h incubation by liquid-chromatography-coupled mass spectrometry (LC–MS); details: 2 µM
# [17] = The drug is tested on Eubacterium ventriosum strain: ATCC27560 for biotransformation. The drug concentrations were measured before and after a 12-h incubation by liquid-chromatography-coupled mass spectrometry (LC–MS); type: ADME; parameters: dose 2 uM, timepoint 0 vs 12 hours; details: 2 µM
# [18] = The drug is tested on Bacteroides fragilis strain: HMW610 for biotransformation. The drug concentrations were measured before and after a 12-h incubation by liquid-chromatography-coupled mass spectrometry (LC–MS); details: 2 µM
# [19] = akkermansia muciniphila, 12 h, 2 µM
# Description: The drug is tested on Akkermansia muciniphila strain: ATCC BAA-835 for biotransformation. The drug concentrations were measured before and after a 12-h incubation by liquid-chromatography-coupled mass spectrometry (LC–MS)
Compound,Bacterial Biotransformation [1],Bacterial Biotransformation [2],Bacterial Biotransformation [3],Bacterial Biotransformation [4],Bacterial Biotransformation [5],Bacterial Biotransformation [6],Bacterial Biotransformation [7],Bacterial Biotransformation [8],Bacterial Biotransformation [9],Bacterial Biotransformation [10],Bacterial Biotransformation [11],Bacterial Biotransformation [12],Bacterial Biotransformation [13],Bacterial Biotransformation [14],Bacterial Biotransformation [15],Bacterial Biotransformation [16],Bacterial Biotransformation [17],Bacterial Biotransformation [18],Bacterial Biotransformation [19]
CCOC(=O)[C@H](CCc1ccccc1)N[C@@H](C)C(=O)N1Cc2ccccc2C[C@H]1C(=O)O,Compound metabolized,Compound NOT metabolized,Compound metabolized,Compound metabolized,Compound NOT metabolized,Compound metabolized,Compound metabolized,Compound NOT metabolized,Compound NOT metabolized,Compound NOT metabolized,Compound NOT metabolized,Compound metabolized,Compound NOT metabolized,Compound metabolized,–,–,–,–,–
O=C1CN2Cc3c(ccc(Cl)c3Cl)N=C2N1 [ANAGRELIDE],Compound NOT metabolized,Compound NOT metabolized,Compound NOT metabolized,–,Compound NOT metabolized,Compound NOT metabolized,Compound NOT metabolized,Compound NOT metabolized,Compound NOT metabolized,Compound NOT metabolized,–,Compound NOT metabolized,–,Compound NOT metabolized,Compound NOT metabolized,Compound NOT metabolized,Compound NOT metabolized,–,–
CC(C)(C#N)c1cc(Cn2cncn2)cc(C(C)(C)C#N)c1 [ANASTROZOLE],–,Compound NOT metabolized,–,Compound metabolized,Compound NOT metabolized,Compound metabolized,Compound metabolized,Compound NOT metabolized,Compound NOT metabolized,Compound NOT metabolized,Compound NOT metabolized,Compound metabolized,Compound NOT metabolized,Compound NOT metabolized,Compound metabolized,Compound NOT metabolized,Compound NOT metabolized,Compound NOT metabolized,Compound metabolized
CC(C)NCC(O)COc1ccc(COCCOC(C)C)cc1.CC(C)NCC(O)COc1ccc(COCCOC(C)C)cc1.O=C(O)/C=C/C(=O)O (stereo not given) [BISOPROLOL FUMARATE],–,Compound NOT metabolized,Compound NOT metabolized,Compound NOT metabolized,Compound NOT metabolized,Compound NOT metabolized,Compound NOT metabolized,Compound NOT metabolized,Compound NOT metabolized,Compound NOT metabolized,Compound NOT metabolized,Compound NOT metabolized,–,Compound NOT metabolized,Compound NOT metabolized,Compound NOT metabolized,Compound NOT metabolized,Compound NOT metabolized,–
CCCC(C)(COC(N)=O)COC(=O)NC(C)C (stereo not given) [CARISOPRODOL],–,–,Compound NOT metabolized,Compound metabolized,Compound NOT metabolized,Compound metabolized,Compound metabolized,Compound NOT metabolized,–,Compound NOT metabolized,Compound metabolized,Compound metabolized,–,Compound NOT metabolized,–,Compound NOT metabolized,Compound metabolized,Compound metabolized,Compound NOT metabolized
Clc1cccc(Cl)c1N=C1NCCN1 [CLONIDINE],–,Compound NOT metabolized,Compound NOT metabolized,Compound NOT metabolized,Compound NOT metabolized,Compound metabolized,Compound metabolized,Compound NOT metabolized,Compound NOT metabolized,Compound NOT metabolized,Compound NOT metabolized,Compound metabolized,Compound NOT metabolized,Compound NOT metabolized,Compound NOT metabolized,Compound NOT metabolized,Compound NOT metabolized,–,Compound NOT metabolized
CN1CCN(C2=Nc3cc(Cl)ccc3Nc3ccccc32)CC1 [CLOZAPINE],Compound NOT metabolized,Compound NOT metabolized,Compound NOT metabolized,Compound NOT metabolized,Compound NOT metabolized,–,Compound NOT metabolized,Compound NOT metabolized,Compound NOT metabolized,Compound NOT metabolized,–,Compound NOT metabolized,Compound NOT metabolized,Compound NOT metabolized,–,Compound NOT metabolized,Compound NOT metabolized,Compound NOT metabolized,Compound NOT metabolized
CN(C)CCC=C1c2ccccc2C=Cc2ccccc21 [CYCLOBENZAPRINE],–,Compound NOT metabolized,Compound NOT metabolized,Compound NOT metabolized,Compound NOT metabolized,Compound NOT metabolized,Compound NOT metabolized,Compound NOT metabolized,Compound NOT metabolized,Compound NOT metabolized,–,–,Compound NOT metabolized,Compound NOT metabolized,–,Compound NOT metabolized,Compound NOT metabolized,Compound NOT metabolized,–
O=P1(N(CCCl)CCCl)NCCCO1 (stereo not given) [CYCLOPHOSPHAMIDE ANHYDROUS],Compound NOT metabolized,Compound NOT metabolized,Compound NOT metabolized,Compound NOT metabolized,Compound NOT metabolized,Compound NOT metabolized,Compound NOT metabolized,–,Compound NOT metabolized,–,Compound NOT metabolized,–,–,Compound NOT metabolized,Compound NOT metabolized,Compound NOT metabolized,–,–,Compound NOT metabolized
CC(=O)SCC(Cc1ccccc1)C(=O)NCC(=O)OCc1ccccc1 (stereo not given) [RACECADOTRIL],–,–,Compound NOT metabolized,Compound metabolized,Compound NOT metabolized,Compound metabolized,Compound metabolized,–,–,–,Compound metabolized,Compound metabolized,–,Compound metabolized,Compound metabolized,Compound metabolized,Compound metabolized,Compound metabolized,Compound metabolized
CN1CCN(CC/C=C2/c3ccccc3Sc3ccc(S(=O)(=O)N(C)C)cc32)CC1 [THIOTHIXENE],Compound NOT metabolized,Compound metabolized,Compound NOT metabolized,Compound metabolized,Compound NOT metabolized,Compound NOT metabolized,Compound metabolized,Compound NOT metabolized,Compound NOT metabolized,Compound NOT metabolized,Compound metabolized,Compound NOT metabolized,Compound metabolized,Compound NOT metabolized,–,–,Compound metabolized,Compound NOT metabolized,Compound NOT metabolized

# Source: ChEMBL document CHEMBL5303573, “Mapping human microbiome drug metabolism by gut bacteria and their genes” (Nature, 2019)
